The results in this text go back to a melting point compilation (Tetko et al.; mined from patent text by program, amines drawn as free bases though some values may be those of a salt).

Molecules are shown by their SMILES.

In turn, `CCOC(=O)c1c2n(c3ccc(F)cc3c1=O)CCS2` yielded a melting point of 225 to 226 °C. To `CCCCn1c(=O)n(CCCC2CO2)c(=O)c2c1ncn2C` (stereo not given) belongs 76 to 78 °C. The value for `COC(=O)c1ccc(C(=O)N(C)C)cc1` was 107 °C; that for `CCC(C(=O)N(C)C)n1ccc(-c2ccccc2C)n1` (stereo not given) was 48 to 51 °C. Consider `Cc1cc(Nc2cncc(Nc3ccc(Cl)c(C(=O)N(C)C)c3)n2)n[nH]1`, for which the melting point fell in the range of 213 to 215 °C. `O=C(NC(=O)c1c(F)cccc1F)Nc1ccc(SC(F)(F)C(F)F)cc1F` registered a melting point of 177 to 179 °C. As to `O=C(CCC(F)(F)F)Oc1cc(=O)n(-c2ccccc2)c2ncccc12`, the melting point is 193 to 195 °C. `CCOC(=O)C(=O)Nc1cccc(NC(=O)C(=O)OCC)c1`: the melting point came to 150 °C. As to `CC(C)OC(C)c1cc2c(=O)n(NS(C)(=O)=O)c(=O)[nH]c2cc1C(F)(F)F` (stereo not given), the melting point fell in the range of 110 to 115 °C. `O=c1[nH]c2ccccc2c(=O)c2ccccc12`: the melting point lay within 245 to 248 °C.

Take `CC(=O)NC[C@H]1CN(c2cc(F)c(N3CCSCC3)c(F)c2)C(=O)O1`: the melting point lay in the range of 187 to 188 °C. Regarding `Cc1ccc(C(N)=O)c(C)c1`, the melting point fell in the range of 184 to 186 °C. For `N#Cc1c(Cl)cccc1CSCCNC(=O)c1c(Cl)cccc1Cl`, the melting point lay within 166 to 168 °C.

As to `CCCCCCCCCCCC(=O)Oc1ccc2[nH]c3c(C)c4ccncc4c(C)c3c2c1`, the melting point is 188 to 190 °C. In turn, `FC(F)c1cc(-c2ccc(C(F)(F)F)cc2)nc2c(-c3ccncc3)cnn12` displayed a melting point of 222 °C. Compound `CCCn1c(=O)c2c(nc(/C=C/c3ccc(OC)c(OC)c3)n2C)n(CCC)c1=O` returned a melting point of 127 °C. `Cc1ccc(S(=O)(=O)N2CC3CCCNC3C2)cc1` (stereo not given) yielded a melting point of 95 to 97 °C. To `CCOCCn1cc(C2CCN(CCOc3ccc(C)cc3C(=O)O)CC2)c2cc(OC)ccc21` belongs 144 to 146 °C.

In turn, `COc1ccc2nc3ccc(C(=O)N(C)C)cn3c(=O)c2c1` registered a melting point of 190 to 196 °C. As to `CC1CC2C3CCC4=CC(=O)CCC4=C3C(c3ccc(-c4cccnc4)cc3)CC2(C)C1C(=O)C1CC1` (stereo not given), the melting point worked out at 206 °C. The compound `S=c1c2c(c3cccnc3n1-c1ccccc1)OCC2` gave a melting point of 242 to 244 °C. `N#CCCNC(=O)c1n[nH]cc1NC(=O)c1ccc(-c2ccccc2)o1` displayed a melting point of 228 to 230 °C. As for `COc1cc(Nc2nccc(-c3ccsc3)n2)cc(OC)c1OC`, the melting point was 163 °C. In the case of `Cc1onc2c1N(CCCOc1ccccc1)C(=O)COC2(C)c1ccccc1` (stereo not given), the melting point was in the range of 118 to 120 °C. `COc1cccc(COc2cccc3c2CN(C2CCC(=O)NC2=O)C3=O)c1` (stereo not given) returned a melting point of 225 to 227 °C. As for `NCCSc1c(S(=O)(=O)c2ccccc2)c2ccccc2n1Cc1ccccc1`, the melting point lay within 149 to 150 °C. Turning to `CCC(=NO)c1nc(C)nc2c1c(C)c(C)n2-c1c(C)cc(C)cc1C`, the melting point was in the range of 84 to 87 °C. Regarding `CC(C)(O)CCCCCc1cccc(CCc2cc(O)cc(O)c2)c1`, the melting point lay in the range of 102 to 103 °C.

In the case of `Clc1ccc(-c2nc(-n3cncn3)oc2CCC2=NCCO2)cc1`, the melting point was in the range of 132 to 133 °C.

`CC(C)C1c2onc(-c3ccc(Cl)cc3)c2CCC1C(=O)O` (stereo not given): the melting point was 180 to 182 °C. The compound `COc1c(OC)c(OC(C)=O)c2cc(Cl)ccc2c1O` displayed a melting point of 106 to 107 °C. With `NC(=O)COc1ccc(OCc2ccccc2)cc1OCc1ccccc1`, the melting point is 120 °C. Take `CC(c1cccc(C(=O)c2ccccc2)c1)C(O)CC#N` (stereo not given): the melting point worked out at 130 °C. The compound `O=C(Nc1ccc(-n2nc(C3CCCO3)cc2C(F)(F)F)cc1)c1ccncc1F` (stereo not given) gave a melting point of 116 to 118 °C. `CCOP(=O)(O)Cc1ccc(NC(=O)N2CCN(c3ccc(NC(=O)Nc4cc(C)ccc4OC)cc3)CC2)c(C)c1` registered a melting point of 165 to 173 °C. Turning to `N#Cc1ccc([C@H]2[C@@H]3C(=O)N(Cc4ccc5c(c4)OCO5)C(=O)[C@@H]3[C@@H]3CSCN32)cc1` (racemic), the melting point fell in the range of 142 to 143 °C. The value for `CS(=O)CCNC(=O)c1cc2cc(S(N)(=O)=O)sc2s1` (stereo not given) was 242 to 243 °C. The compound `O=c1c(CCCCCc2ccncc2)cc2cccnc2n1-c1cccc([N+](=O)[O-])c1` had a melting point of 189 to 190 °C. `Clc1nc2cc(Cl)c(Cl)c(Cl)c2[nH]1` had a melting point of 243 to 244 °C. The value for `Cc1oc(-c2ccccc2Cl)nc1CCOc1ccc(CC2SC(=O)NC2=O)cn1` (stereo not given) was 176 to 177 °C.

In turn, `O=C1Nc2cc(Cl)ccc2Oc2cscc21` displayed a melting point of 263 to 265 °C. The compound `Nc1ccc(CS(=O)(=O)CCO)cc1CS(=O)(=O)CCO` had a melting point of 183 to 185 °C. Compound `Oc1cccc2c1ccn2CCOCCC(c1ccccc1)c1ccccc1` gave a melting point of 107 to 109 °C. To `C#Cc1cc(C)cc(C)c1-c1c(O)c(C)nn(C)c1=O` belongs 179 to 181 °C; to `CNc1nc(OC)c(C(=O)O)cc1Br`, 224 to 225 °C; to `CSc1nn2c(O)cc(CCl)nc2c1S(=O)(=O)c1ccccc1`, 215 to 217 °C. As for `Cc1cccc(C2(C(N)=S)CCCS2)n1` (stereo not given), the melting point is 171 °C.

`O=C1C=C(c2c[nH]c3ccc(F)cc23)C(=O)N1` came in with a melting point of 255 to 265 °C.

For the compound `CCCCc1ccc(CCCCC(NC(C)=O)(C(=O)OCC)C(=O)OCC)cc1`, the melting point was in the range of 60 to 61 °C. `CCCCN1CCC(NC(=O)c2cnc3c(OC)cccc3c2Nc2ccc(C(=O)NC3CCN(Cc4ccccc4)CC3)cc2)CC1`: the melting point lay within 215 to 220 °C. To `CNc1nc(C)c(-c2sc(NC)nc2C)s1` belongs greater than 280 °C. As for `FC(F)(F)COC(c1ccccc1)(c1ccccc1)c1ccccc1`, the melting point came to 111 °C.

Turning to `O=C(Nc1ccccc1)N1CC(Oc2cccc(C(F)(F)F)c2)C1`, the melting point lay within 137 to 138 °C. The value for `CC(C)COc1ccccc1OCCOS(C)(=O)=O` was 59 to 61 °C. Turning to `CCCc1nn(C)c2c(=O)[nH]c(-c3cc4cccc(OCC)c4o3)nc12`, the melting point was 227 to 229 °C.

As for `Cc1c(-c2ccccc2)nn(C)c1C(=O)O`, the melting point lay in the range of 161 to 163 °C. `CCCC(Sc1cc(C(C)(C)C)c(O)c(C(C)(C)C)c1)C(=O)Nc1c(C)cccc1C` (stereo not given): the melting point is 137 to 140 °C. In the case of `O=c1[nH]c2cccc(OCCNCc3ccc(Cl)cc3)c2[nH]c1=O`, the melting point is greater than 250 °C. The compound `COc1ncccc1NC(=NC#N)NC(NC(=O)c1cccc(Cl)c1)C(C)(Cl)Cl` (stereo not given) had a melting point of 115 to 116 °C. The value for `C=C(C)C=CCC(C)C1CCC2(C)C1(C)CCC1C3(C)CCC(OC(C)=O)CC3CCC12C` (stereo not given) was 120 to 125 °C; that for `CC(C)CC1C(=O)NCCN1Cc1ccccc1` (stereo not given) was 126 to 127 °C. `CC12CC(=O)C3C(CCC4CC(O)CCC43C)C1CCC2C(=O)CCOC(=O)CCl` (stereo not given) showed a melting point of 95 to 97 °C. Compound `CCn1c2ccccc2c2oc(C(=O)Cl)cc21` showed a melting point of 127 to 129 °C. `C#CCOc1ccc(Br)cn1` displayed a melting point of 58 to 60 °C. As for `CSC1=NCC2CN=C(c3ccccc3F)c3cc(Cl)ccc3N12` (stereo not given), the melting point fell in the range of 163 to 165 °C. `Cc1ccc(C(=O)c2ccc(O)c(CC(=O)O)c2)cc1` had a melting point of 218 °C. To `Brc1ccccc1-n1cnc2cnc3ccc(-c4ccccc4)cc3c21` belongs 128 to 129 °C. As to `COC(=O)c1[nH]c(C)c2c1CN=C(c1ccccc1F)c1cc(Cl)ccc1-2`, the melting point lay in the range of 228 to 231 °C.

In turn, `CCN1CC2=C(C1)CN(c1c(F)cc3c(=O)c(C(=O)O)cn(C4CC4)c3c1F)C2` showed a melting point of 188 to 192 °C. To `O=C(NCC(c1ccccc1)c1ccccc1)N1CCC(=C(c2ccccc2)c2ccccc2)CC1` belongs 158 to 160 °C; to `CC(=O)O[C@@H]1OCC[C@@H]1NC(=O)[C@H](CC(C)C)NC(=O)Nc1cccc2ccccc12`, 196 to 198 °C. Compound `Cc1c(N2CCC(N(C)C)C(C)C2)c(F)cc2c(=O)c(C(=O)O)cn(C3CC3)c12` (stereo not given) yielded a melting point of 221 °C. `Nc1cc2c(cc1C(=O)c1ccccc1)OCO2` displayed a melting point of 160 to 161 °C. Regarding `CC(=O)N(c1ccc(C)c(C)c1)[C@H](C)C(=O)O`, the melting point is 156 to 159 °C. For the compound `Cc1cc(=O)oc2nn(Cc3cccs3)c(C)c12`, the melting point fell in the range of 164 to 167 °C. Compound `CCOC(=O)C(=O)Nc1ncccn1` yielded a melting point of 96 to 99 °C.

As to `Cc1nsc(Cl)c1CS(=O)(=O)C1=NOC(C)(C)C1`, the melting point was in the range of 113 to 114 °C. The compound `CN1CN(C)C(=S)N(c2ccccc2)C1` had a melting point of 85 to 87 °C. Take `CC12CCC3c4ccc(OCc5ccccc5)cc4CCC3C1CCC2O` (stereo not given): the melting point fell in the range of 97 to 100 °C. `NS(=O)(=O)c1ccc(-n2nc(C(F)(F)F)cc2-c2ccc(-c3ccco3)c(Cl)c2)cc1F` displayed a melting point of 172 °C. The value for `CN1CCC(Oc2cccc(C(=O)Nc3cc(NC(=O)c4ccc(C#N)cc4)ccc3Cl)c2)CC1` was 177 to 179 °C; that for `Nc1cccc(Cn2c(-c3ccc(NC(=O)c4cccc(Br)c4)cc3)ccc2-c2ccccc2Cl)n1` was 116 to 122 °C. Compound `CC(=O)Nc1cc(O)ccc1-c1cc(=O)c2ccccc2o1` showed a melting point of 253 to 255 °C.

As to `Cc1ccc(-c2c([N+](=O)[O-])oc3ccccc23)cc1C`, the melting point lay in the range of 125 to 133 °C. The value for `COCc1cc(-c2ccccc2)c(=O)n2c1-c1sccc1CC2` was 120 °C. `O=Cc1ccc(OC2OC(CO)C(O)C(O)C2O)c2ccccc12` (stereo not given) had a melting point of less than 255 °C.

In turn, `O=C1NC(=O)c2c1ccc(N1C(=O)C=CC1=O)c2N1C(=O)C=CC1=O` had a melting point of 180 to 200 °C. Take `COC(=O)CCC(C)C1CCC2C3CC=C4CC(OC(C)=O)CC(OC(C)=O)C4(C)C3CCC12C` (stereo not given): the melting point fell in the range of 108 to 113 °C. `O=C(O)c1cncn1C(c1ccccc1)c1ccccc1`: the melting point turned out to be 216 °C. The value for `O=C1NCCN=C1c1ccc(F)cc1` was 118 to 120 °C.
